Data taken from PMC8963254, “Effects of Lysine N-ζ-Methylation in Ultrashort Tetrabasic Lipopeptides (UTBLPs) on the Potentiation of Rifampicin, Novobiocin, and Niclosamide in Gram-Negative Bacteria” (Antibiotics, 2022).
In brackets after ≈: the same amount, converted by molar mass. Where two headings read alike, the source gives them in different places. Non-standard residues stand in square brackets, D forms with d. Residues, ends and D or L forms follow the SMILES beside them. *: point of attachment. Lys(Me2) = CN(C)CCCC[C@H](N)C(=O)O; Octanoyl = CCCCCCCC(=O)*

Experiments:
A. baumannii ATCC 17978 = type: cell-based, Acinetobacter baumannii; settings: ATCC 17978, 18 h
Method in brief: (§1)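 Minimum inhibitory concentration came from a CLSI broth dilution assay: 18 h at 37 °C, inoculum 5 × 10^5 CFU/mL final.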

E. coli ATCC 25922 [1] = type: cell-based, Escherichia coli; settings: ATCC 25922, 18 h
Method in brief: as §1

E. faecalis ATCC 29212 [2] = type: cell-based, Enterococcus faecalis; settings: ATCC 29212, 18 h
Method in brief: as §1

E. faecium ATCC 27270 [3] = type: cell-based, Enterococcus faecium; settings: ATCC 27270, 18 h
Method in brief: as §1

A. baumannii AB027 = assay: microbe, parasite or virus in culture; type: cell-based, Acinetobacter baumannii; settings: AB027, 18 h
Method in brief: as §1

A. baumannii AB92247 = assay: microbe, parasite or virus in culture; type: cell-based, Acinetobacter baumannii; settings: AB92247, 18 h
Method in brief: as §1

E. coli 94393 [4] = assay: microbe, parasite or virus in culture; type: cell-based, Escherichia coli; settings: 94393, 18 h
Method in brief: as §1

E. coli 94474 [5] = assay: microbe, parasite or virus in culture; type: cell-based, Escherichia coli; settings: 94474, 18 h
Method in brief: as §1

K. pneumoniae 113250 [6] = assay: microbe, parasite or virus in culture; type: cell-based, Klebsiella pneumoniae; settings: 113250, 18 h
Method in brief: as §1

MRSE 61589 [7] = type: cell-based, Staphylococcus epidermidis; settings: 61589, 18 h
Method in brief: as §1

MSSE 81388 [8] = type: cell-based, Staphylococcus epidermidis; settings: 18 h
Method in brief: as §1

E. coli 94393 [9] = type: cell-based, Escherichia coli; settings: for MICUTBLP: UTBLP alone
Method in brief: (§2)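 Checkerboard synergy assay: antibiotic and OMP combined at varying concentrations with 5 × 10^5 CFU/mL inoculum (final), 37 °C, 18 h; growth read as turbidity at 590 nm. FICI = sum of FICs (MIC in combination / MIC alone); ≤0.5 synergistic, 0.5–4 additive, >4 antagonistic.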

E. coli 94474 [10] = type: cell-based, Escherichia coli; settings: for MICUTBLP: UTBLP alone
Method in brief: as §2

E. coli ATCC 25922 [11] = type: cell-based, Escherichia coli; settings: for MICUTBLP: UTBLP alone
Method in brief: as §2

K. pneumoniae 113250 [12] = type: cell-based, Klebsiella pneumoniae; settings: for MICUTBLP: UTBLP alone
Method in brief: as §2

MRSA ATCC 33592 = type: cell-based, Staphylococcus aureus
Method in brief: as §2

S. aureus ATCC 29213 = type: cell-based, Staphylococcus aureus
Method in brief: as §2

MRSE 61589 [13] = type: cell-based, Staphylococcus epidermidis
Method in brief: as §2

MSSE 81388 [14] = type: cell-based, Staphylococcus epidermidis
Method in brief: as §2

E. faecalis ATCC 29212 [15] = type: cell-based, Enterococcus faecalis
Method in brief: as §2

E. faecium ATCC 27270 [16] = type: cell-based, Enterococcus faecium
Method in brief: as §2

[17] = UTBLP in combination with novobiocin
[18] = UTBLP in combination with rifampicin
[19] = novobiocin in combination with the UTBLP
[20] = rifampicin in combination with the UTBLP
[21] = UTBLP in combination with chloramphenicol
[22] = chloramphenicol in combination with the UTBLP
[23] = UTBLP alone, plate with chloramphenicol

In the case of CCCCCCCC(=O)NCCCC[C@H](NC(=O)CCCCCCC)C(=O)N[C@@H](CCCCN(C)C)C(=O)N[C@@H](CCCCN(C)C)C(=O)N[C@@H](CCCCN(C)C)C(=O)N[C@@H](CCCCN(C)C)C(N)=O [UTBLP 7] (Octanoyl-K(Octanoyl)[Lys(Me2)][Lys(Me2)][Lys(Me2)][Lys(Me2)]-NH2), the MIC (A. baumannii ATCC 17978) is reported as 128 µg/mL (≈ 125 µM), the MIC (E. coli ATCC 25922 [1]) is reported as 64 µg/mL (≈ 62.6 µM) and the MIC (E. faecalis ATCC 29212 [2]) is reported as 64 µg/mL (≈ 62.6 µM). The MIC (E. faecium ATCC 27270 [3]) was 128 µg/mL (≈ 125 µM), the MIC (A. baumannii AB027) was 128 µg/mL (≈ 125 µM) and the MIC (A. baumannii AB92247) was 32 µg/mL (≈ 31.3 µM). For the same compound, the MIC (E. coli 94393 [4]) was 64 µg/mL (≈ 62.6 µM), the MIC (E. coli 94474 [5]) was 128 µg/mL (≈ 125 µM) and the MIC (K. pneumoniae 113250 [6]) was over 128 µg/mL. The MIC (MRSE 61589 [7]) was 32 µg/mL (≈ 31.3 µM), the MIC (MSSE 81388 [8]) was 32 µg/mL (≈ 31.3 µM) and the Interpretation (E. coli 94393 [9]; UTBLP + novobiocin) was “Synergy (FICI ≤ 0.5 is synergistic)”. For the same compound, the Interpretation (E. coli 94393 [9]; UTBLP + rifampicin) was “Synergy (FICI ≤ 0.5 is synergistic)”, the MICUTBLP (E. coli 94393 [9]; plate with novobiocin) was 64 µg/mL and the MICUTBLP (E. coli 94393 [9]; plate with rifampicin) was 64 µg/mL. The “MICUTBLP [MICcombo]” value (E. coli 94393 [9]; [17]) was 4 µg/mL, the “MICUTBLP [MICcombo]” value (E. coli 94393 [9]; [18]) was 8 µg/mL and the “MICantibiotic [MICcombo]” value (E. coli 94393 [9]; [19]) was 2 µg/mL. For the same compound, the “MICantibiotic [MICcombo]” value (E. coli 94393 [9]; [20]) was 0.5 µg/mL, the Interpretation (E. coli 94474 [10]; UTBLP + novobiocin) was “Synergy (FICI ≤ 0.5 is synergistic)” and the Interpretation (E. coli 94474 [10]; UTBLP + rifampicin) was “Synergy (FICI ≤ 0.5 is synergistic)”. The MICUTBLP (E. coli 94474 [10]; plate with novobiocin) was 128 µg/mL, the MICUTBLP (E. coli 94474 [10]; plate with rifampicin) was 128 µg/mL and the “MICUTBLP [MICcombo]” value (E. coli 94474 [10]; [17]) was 8 µg/mL. The “MICUTBLP [MICcombo]” value (E. coli 94474 [10]; [18]) was 16 µg/mL, the “MICantibiotic [MICcombo]” value (E. coli 94474 [10]; [19]) was 16 µg/mL and the “MICantibiotic [MICcombo]” value (E. coli 94474 [10]; [20]) was 1 µg/mL. The Interpretation (E. coli ATCC 25922 [11]; UTBLP + chloramphenicol) was “Synergy (FICI ≤ 0.5 is synergistic)”, the Interpretation (E. coli ATCC 25922 [11]; UTBLP + niclosamide) was “Synergy (FICI ≤ 0.5 is synergistic)” and the Interpretation (E. coli ATCC 25922 [11]; UTBLP + novobiocin) was “Synergy (FICI ≤ 0.5 is synergistic)”. For the same compound, the Interpretation (E. coli ATCC 25922 [11]; UTBLP + rifampicin) was “Synergy (FICI ≤ 0.5 is synergistic)”, the MICUTBLP (E. coli ATCC 25922 [11]; plate with chloramphenicol) was 64 µg/mL and the MICUTBLP (E. coli ATCC 25922 [11]; plate with niclosamide) was 64 µg/mL. For the same compound, the MICUTBLP (E. coli ATCC 25922 [11]; plate with novobiocin) was 64 µg/mL, the MICUTBLP (E. coli ATCC 25922 [11]; plate with rifampicin) was 64 µg/mL and the “MICUTBLP [MICcombo]” value (E. coli ATCC 25922 [11]; [21]) was 16 µg/mL. For the same compound, the “MICUTBLP [MICcombo]” value (E. coli ATCC 25922 [11]; UTBLP in combination with niclosamide) was 4 µg/mL, the “MICUTBLP [MICcombo]” value (E. coli ATCC 25922 [11]; [17]) was 2 µg/mL and the “MICUTBLP [MICcombo]” value (E. coli ATCC 25922 [11]; [18]) was 8 µg/mL. For the same compound, the “MICantibiotic [MICcombo]” value (E. coli ATCC 25922 [11]; [22]) was 0.5 µg/mL, the “MICantibiotic [MICcombo]” value (E. coli ATCC 25922 [11]; niclosamide in combination with the UTBLP) was 1 µg/mL and the “MICantibiotic [MICcombo]” value (E. coli ATCC 25922 [11]; [19]) was 2 µg/mL. The “MICantibiotic [MICcombo]” value (E. coli ATCC 25922 [11]; [20]) was 0.125 µg/mL, the Interpretation (K. pneumoniae 113250 [12]; UTBLP + novobiocin) was “Synergy (FICI ≤ 0.5 is synergistic)” and the Interpretation (K. pneumoniae 113250 [12]; UTBLP + rifampicin) was “Synergy (FICI ≤ 0.5 is synergistic)”. For the same compound, the MICUTBLP (K. pneumoniae 113250 [12]; plate with novobiocin) was over 128 µg/mL, the MICUTBLP (K. pneumoniae 113250 [12]; plate with rifampicin) was over 128 µg/mL and the “MICUTBLP [MICcombo]” value (K. pneumoniae 113250 [12]; [17]) was 8 µg/mL. The “MICUTBLP [MICcombo]” value (K. pneumoniae 113250 [12]; [18]) was 16 µg/mL, the “MICantibiotic [MICcombo]” value (K. pneumoniae 113250 [12]; [19]) was 8 µg/mL and the “MICantibiotic [MICcombo]” value (K. pneumoniae 113250 [12]; [20]) was 2 µg/mL. The Interpretation (MRSA ATCC 33592; UTBLP + chloramphenicol) was “Additive (0.5 < x ≤ 4 is additive)”, the MICUTBLP (MRSA ATCC 33592; [23]) was over 128 µg/mL and the “MICUTBLP [MICcombo]” value (MRSA ATCC 33592; [21]) was 0.25 µg/mL. The “MICchloramphenicol [MICcombo]” value (MRSA ATCC 33592; [22]) was 64 µg/mL, the MICUTBLP (S. aureus ATCC 29213; [23]) was over 128 µg/mL and the “MICUTBLP [MICcombo]” value (S. aureus ATCC 29213; [21]) was 0.25 µg/mL. The “MICchloramphenicol [MICcombo]” value (S. aureus ATCC 29213; [22]) was 8 µg/mL, the Interpretation (MRSE 61589 [13]; UTBLP + chloramphenicol) was “Additive (0.5 < x ≤ 4 is additive)” and the MICUTBLP (MRSE 61589 [13]; [23]) was 32 µg/mL. For the same compound, the “MICUTBLP [MICcombo]” value (MRSE 61589 [13]; [21]) was 0.25 µg/mL, the “MICchloramphenicol [MICcombo]” value (MRSE 61589 [13]; [22]) was 8 µg/mL and the Interpretation (MSSE 81388 [14]; UTBLP + chloramphenicol) was “Additive (0.5 < x ≤ 4 is additive)”. The MICUTBLP (MSSE 81388 [14]; [23]) was 32 µg/mL, the “MICUTBLP [MICcombo]” value (MSSE 81388 [14]; [21]) was 0.25 µg/mL and the “MICchloramphenicol [MICcombo]” value (MSSE 81388 [14]; [22]) was 4 µg/mL. For the same compound, the Interpretation (E. faecalis ATCC 29212 [15]; UTBLP + chloramphenicol) was “Additive (0.5 < x ≤ 4 is additive)”, the MICUTBLP (E. faecalis ATCC 29212 [15]; [23]) was 64 µg/mL and the “MICUTBLP [MICcombo]” value (E. faecalis ATCC 29212 [15]; [21]) was 8 µg/mL. The “MICchloramphenicol [MICcombo]” value (E. faecalis ATCC 29212 [15]; [22]) was 4 µg/mL, the Interpretation (E. faecium ATCC 27270 [16]; UTBLP + chloramphenicol) was “Additive (0.5 < x ≤ 4 is additive)” and the MICUTBLP (E. faecium ATCC 27270 [16]; [23]) was 128 µg/mL. The “MICUTBLP [MICcombo]” value (E. faecium ATCC 27270 [16]; [21]) was 0.25 µg/mL and the “MICchloramphenicol [MICcombo]” value (E. faecium ATCC 27270 [16]; [22]) was 4 µg/mL.
